Test systems include CCRF-CEM leukemia; EKVX NSCLC; HCT-15 colon; NCI-H460 lung; OVCAR-4 ovarian; SF-295 CNS; SK-OV-3 ovarian; SNB-75 CNS; U251 CNS; UACC-62 melanoma.
What all share (assay): DTP human tumour cell line panel, 48 h

The structures appear in SMILES notation.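 Five concentrations, 48 hours, 96-well plates. The concentration for 50% growth inhibition is given as GI50. Definition used: TGI = concentration required for complete inhibition of growth.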

The GI50 is the concentration giving 50% growth inhibition. The term TGI denotes the concentration giving total growth inhibition. Consider `CC(C)COCC(CN(Cc1ccccc1)c1ccccc1)N1CCCC1` (centres undefined), for which the GI50 with CCRF-CEM leukemia is 2.71 µM; in the test on EKVX NSCLC, 2.85 µM; in the test on HCT-15 colon, 3.15 µM; with NCI-H460 lung, 2.54 µM; with OVCAR-4 ovarian, 2.04 µM; in the test with SF-295 CNS it was 2.02 µM. Moreover, the GI50 in the test on SK-OV-3 ovarian was 3.17 µM; in the test on SNB-75 CNS it was 3.47 µM; in the test with U251 CNS, 3.24 µM; in the test with UACC-62 melanoma it was 2.87 µM. Also, the TGI was 13.7 µM with CCRF-CEM leukemia; 15.1 µM in the test on EKVX NSCLC; 15.2 µM with HCT-15 colon; 8.14 µM in the test on NCI-H460 lung; 11 µM with OVCAR-4 ovarian; 6.5 µM in the test with SF-295 CNS. The TGI in the test with SK-OV-3 ovarian stood at 13.6 µM; with SNB-75 CNS, 17.6 µM; in the test on U251 CNS, 13.3 µM; in the test on UACC-62 melanoma, 12.5 µM.

Regarding `COc1cccc2c1C(=O)c1c(O)c3c(c(O)c1C2=O)C[C@@](O)(C(=O)CO)C[C@@H]3O[C@H]1C[C@H](N)[C@@H](O)[C@H](C)O1`, the GI50 in the test with CCRF-CEM leukemia was 0.0919 µM; in the test on EKVX NSCLC, 1.2 µM; in the test on HCT-15 colon, 2.99 µM; in the test with NCI-H460 lung it was 0.0231 µM; in the test on OVCAR-4 ovarian it was 0.546 µM; in the test with SF-295 CNS it was 0.158 µM. The values for the GI50 in the test on SK-OV-3 ovarian, in the test with SNB-75 CNS and in the test on UACC-62 melanoma were 0.318 µM, 0.084 µM and 0.0847 µM, respectively. In addition, the TGI in the test on CCRF-CEM leukemia was determined as 0.95 µM; in the test with EKVX NSCLC, 16.1 µM; in the test with HCT-15 colon it was 50 µM; in the test on NCI-H460 lung, 17.1 µM; in the test with OVCAR-4 ovarian it was 5.87 µM; with SF-295 CNS, 1.54 µM. For the same compound, the TGI in the test on SK-OV-3 ovarian was found to be 31.6 µM; in the test with SNB-75 CNS, 0.634 µM; in the test on U251 CNS, 16.4 µM; with UACC-62 melanoma it was 0.498 µM.

For the compound `Cc1c(C(=O)CC(=O)C(=O)Nc2ccc(Cl)cc2)[n+](=O)c2ccccc2n1[O-]`, the TGI in the test with CCRF-CEM leukemia, in the test on EKVX NSCLC, in the test with HCT-15 colon, in the test with NCI-H460 lung, with OVCAR-4 ovarian and in the test on SF-295 CNS was over 100 µM in each case. The TGI in the test with SK-OV-3 ovarian, with SNB-75 CNS, in the test on U251 CNS and in the test with UACC-62 melanoma was over 100 µM each time.

As for `CC(C)(CN1CCCCC1)C(=O)/C=C/c1ccc(Cl)cc1`, the TGI with CCRF-CEM leukemia is 7 µM; in the test on EKVX NSCLC, 10 µM; in the test on HCT-15 colon it was 9.85 µM; in the test on NCI-H460 lung, 8.21 µM; in the test on OVCAR-4 ovarian, 16 µM; in the test with SF-295 CNS, 11.3 µM. Besides, the TGI with SK-OV-3 ovarian was found to be 23.5 µM; in the test with SNB-75 CNS, 11.4 µM; in the test on U251 CNS, 11.7 µM; with UACC-62 melanoma, 20.2 µM.

For the compound `O=C(c1ccccc1)C(Br)C(Br)c1cccc([N+](=O)[O-])c1` (centres undefined), the GI50 was 0.574 µM with CCRF-CEM leukemia; 16.4 µM in the test with EKVX NSCLC; 1.72 µM with HCT-15 colon; 3.12 µM in the test on NCI-H460 lung; 1.49 µM with OVCAR-4 ovarian; 10.8 µM with SF-295 CNS. The GI50 was 11 µM in the test with SK-OV-3 ovarian, 6.48 µM with SNB-75 CNS, 1.56 µM with U251 CNS and 1.79 µM in the test on UACC-62 melanoma. Also, the TGI in the test with CCRF-CEM leukemia was found to be 2.78 µM; with EKVX NSCLC it was 34.5 µM; with HCT-15 colon, 3.36 µM; with NCI-H460 lung it was 14.9 µM; in the test with OVCAR-4 ovarian it was 2.81 µM; with SF-295 CNS, 24 µM. Also, the TGI with SK-OV-3 ovarian came to 22.9 µM; with SNB-75 CNS, 19.8 µM; with U251 CNS it was 3.02 µM; in the test on UACC-62 melanoma, 3.56 µM.

Take `CC(C)c1c(O)ccc2c1CCC1C(C)(C)CCCC21C` (centres undefined): the TGI in the test with CCRF-CEM leukemia stood at 49.3 µM; with EKVX NSCLC it was 31.7 µM; with HCT-15 colon, 34.3 µM; in the test on NCI-H460 lung it was 31.7 µM; with OVCAR-4 ovarian, 32.9 µM; in the test with SF-295 CNS, 32.5 µM. In addition, the total growth inhibition concentration (TGI) with SK-OV-3 ovarian was found to be 33.4 µM; with SNB-75 CNS it was 33.1 µM; in the test on U251 CNS, 33.2 µM; in the test with UACC-62 melanoma, 28.9 µM.

On to `CNCCNc1c2c(c(NCCNC)c3[nH]ccc13)C(=O)c1ccccc1C2=O`, for which the GI50 was 0.0148 µM with CCRF-CEM leukemia; 1.33 µM in the test with EKVX NSCLC; 0.115 µM with HCT-15 colon; 0.0991 µM with NCI-H460 lung; 1.66 µM with OVCAR-4 ovarian; 0.139 µM with SF-295 CNS. Further, the GI50 is 5.67 µM with SK-OV-3 ovarian, 3.5 µM with SNB-75 CNS, 0.0587 µM with U251 CNS and 0.231 µM with UACC-62 melanoma. The TGI in the test with CCRF-CEM leukemia worked out at 0.203 µM; with EKVX NSCLC, 4.13 µM; in the test with HCT-15 colon it was 0.761 µM; with NCI-H460 lung it was 0.501 µM; in the test on OVCAR-4 ovarian, 5.11 µM; with SF-295 CNS, 0.901 µM. Moreover, the TGI in the test on SK-OV-3 ovarian is 13.3 µM; in the test with SNB-75 CNS, 8.86 µM; with U251 CNS, 0.615 µM; with UACC-62 melanoma it was 1.05 µM.

`Cc1cc(=O)[nH]c2cc3c(c4c(n3Cc3ccc(Cl)cc3Cl)CC(C)(C)CC4=O)c(O)c12`: the GI50 in the test with CCRF-CEM leukemia was 82.3 µM; with EKVX NSCLC, 36.4 µM; in the test with HCT-15 colon it was over 100 µM; in the test on NCI-H460 lung, 79.5 µM; in the test with OVCAR-4 ovarian, over 100 µM; with SF-295 CNS, 16.4 µM. The GI50 is over 100 µM in the test on SK-OV-3 ovarian, 24.6 µM in the test on SNB-75 CNS, 62.6 µM with U251 CNS and over 100 µM with UACC-62 melanoma. Further, the TGI with CCRF-CEM leukemia was over 100 µM; in the test on EKVX NSCLC, over 100 µM; with HCT-15 colon, over 100 µM; in the test on NCI-H460 lung, over 100 µM; in the test with OVCAR-4 ovarian, over 100 µM; in the test with SF-295 CNS, 63.5 µM. Besides, the TGI is over 100 µM in the test on SK-OV-3 ovarian, 59.8 µM in the test on SNB-75 CNS, over 100 µM in the test with U251 CNS and over 100 µM in the test with UACC-62 melanoma.

The record behind these values is PubChem BioAssay (NCI).
